In patent US12319663B2, “Alkene-containing amide compound and application thereof” (SHENYANG SINOCHEM AGROCHEMICALS R&D CO., LTD., priority 2019, dated 2025):

What was measured:
Format in all cases: in vivo
barnyard grass = assay: Herbicidal activity, post-emergence stem and leaf spray, greenhouse: barnyard grass control
Method: (§1) Seeds of broadleaf weeds (zinnia and piemarker) or grassy weeds (green bristlegrass and barnyard grass) are respectively sown in a paper cup having a diameter of 7 cm and containing nutrient soil; after sowing, the seeds are covered with 1 cm of soil; the soil is pressed and watered, and then the seeds are cultivated in a greenhouse according to a conventional method; and stems and leaves are sprayed after 2-3 leaf stage of the weeds.
(§2) After the original medicinal acetone was dissolved, the test requires to use 1% of Tween 80 to stand in running water to prepare the solution to be tested with a required concentration. According to the design dose of the test, spray treatment was carried out on a track-type crop sprayer (designed and produced by British Engineer Research Ltd.) (spray pressure is 1.95 kg/cm^2, spray volume is 50 L/hm^2 and track speed is 1.48 km/h). The test was repeated for three times. The test material was treated and then placed in an operation hall. The medicinal liquid was naturally dried in the shade, and then was placed in a greenhouse and managed according to the conventional method, The response of the weeds to the drug was observed and recorded, After treatment, the control effects of the test drug on the weeds were visually inspected regularly, expressed by 0-100%. “0” represents no control effect and “100%” represents complete killing.
According to the above test method, part of the compounds of the formula I and KC are selected for the activity test of controlling the barnyard grass.

zinnia = assay: Herbicidal activity, post-emergence stem and leaf spray, greenhouse: zinnia control; conditions: visual, 0 = no control effect, 100% = complete killing
Method: as §1, §2
According to the above test method, part of the compounds of the formula I and KC are selected for activity test of controlling the zinnia.

green bristlegrass = assay: Herbicidal activity, post-emergence stem and leaf spray, greenhouse: green bristlegrass control
Method: as §1, §2
According to the above test method, part of the compounds of the formula I and KC are selected for the activity test of controlling the green bristlegrass.

piemarker = assay: Herbicidal activity, post-emergence stem and leaf spray, greenhouse: piemarker control
Method: as §1, §2
According to the above test method, part of the compounds of the formula I and KC are selected for activity test of controlling the piemarker. […]

[1] = dose 37.5 g a.i./hm2, post-emergence stem and leaf spray
[2] = dose 150 g a.i./hm2, post-emergence stem and leaf spray
[3] = dose 600 g a.i./hm2, post-emergence stem and leaf spray

Compound	Barnyard grass control activity (after emergence, control effect %) (barnyard grass; [1]) [%]	Barnyard grass control activity (after emergence, control effect %) (barnyard grass; [2]) [%]	Barnyard grass control activity (after emergence, control effect %) (barnyard grass; [3]) [%]	Zinnia control activity (after emergence, control effect %) (zinnia; dose 37.5 g a.i./hm^2) [%]	Zinnia control activity (after emergence, control effect %) (zinnia; dose 150 g a.i./hm^2) [%]	Zinnia control activity (after emergence, control effect %) (zinnia; dose 600 g a.i./hm^2) [%]	Green bristlegrass control activity (after emergence, control effect %) (green bristlegrass; [1]) [%]	Green bristlegrass control activity (after emergence, control effect %) (green bristlegrass; [2]) [%]	Green bristlegrass control activity (after emergence, control effect %) (green bristlegrass; [3]) [%]	Piemarker control activity (after emergence, control effect %) (piemarker; [1]) [%]	Piemarker control activity (after emergence, control effect %) (piemarker; [2]) [%]	Piemarker control activity (after emergence, control effect %) (piemarker; [3]) [%]
Cc1c(C(=O)N(C(=O)C2=CCCCC2)c2nnnn2C)ccc(S(C)(=O)=O)c1OCC(F)(F)F [Compound 2-13]	80	100	100	100	100	100						
Cc1c(C(=O)N(C(=O)C2=CCCC2)c2nnnn2C)ccc(S(C)(=O)=O)c1OCC(F)(F)F [Compound 2-15]	85	100	100	100	100	100	90	100	100			
Cc1c(S(C)(=O)=O)ccc(C(=O)N(C(=O)/C=C/c2ccccc2)c2nnnn2C)c1Cl [Compound 1-19]				95	95	100				90	90	98
Cn1nnnc1N(C(=O)c1ccccc1)C(=O)c1ccc(C(F)(F)F)cc1S(C)(=O)=O [KC, reference compound]	50	65		65	90		45	70		60	85	
COCCOc1c(S(C)(=O)=O)ccc(C(=O)N(C(=O)C2=CCCCC2)c2nnnn2C)c1C [Compound 2-19]	90	100	100									
Cn1nnnc1N(C(=O)/C=C/c1ccccc1)C(=O)c1ccc(C(F)(F)F)cc1S(C)(=O)=O [Compound 1-1]				100	100	100				100	100	100
COCCOCc1c(S(C)(=O)=O)ccc(C(=O)N(C(=O)C2=CCCCC2)c2nnnn2C)c1Cl [Compound 2-270]	90	95	100				90	95	98	90	98	100
COCc1c(S(C)(=O)=O)ccc(C(=O)N(C(=O)/C=C/c2ccccc2)c2nnnn2C)c1Cl [Compound 1-24]	95	95	100	100	100	100				100	100	100
Cn1nnnc1N(C(=O)C1=CCCCC1)C(=O)c1ccc(S(C)(=O)=O)cc1Cl [Compound 2-269]	80	90	95							90	95	100
Cn1nnnc1N(C(=O)C1=CCCC1)C(=O)c1ccc(C(F)(F)F)cc1S(C)(=O)=O [Compound 2-266]	85	90	95	95	98	100	90	95	100	90	95	100
Cc1c(C(=O)N(C(=O)/C=C/c2ccccc2)c2nnnn2C)ccc(S(C)(=O)=O)c1OCC1CCCO1 (centres unmarked) [Compound 1-100]	100	100	100									
COCc1c(S(C)(=O)=O)ccc(C(=O)N(C(=O)C2=CCCCC2)c2nnnn2C)c1Cl [Compound 2-103]	80	90	100	90	95	100	80	90	95	95	100	100
COCc1c(S(C)(=O)=O)ccc(C(=O)N(C(=O)C2CC=CC2)c2nnnn2C)c1Cl [Compound 2-106]				100	100	100						
COc1c(S(C)(=O)=O)ccc(C(=O)N(C(=O)/C=C/c2ccccc2)c2nnnn2C)c1C [Compound 1-95]				100	100	100						
CCCOc1c(S(C)(=O)=O)ccc(C(=O)N(C(=O)/C=C/c2ccccc2)c2nnnn2C)c1C [Compound 1-296]	100	100	100									
Cn1nnnc1N(C(=O)C1=CCCCC1)C(=O)c1ccc(C(F)(F)F)cc1S(C)(=O)=O [Compound 2-265]	95	95	95	95	100	100	80	90	95	90	95	95
Cn1nnnc1N(C(=O)/C=C/c1ccc2c(c1)OCO2)C(=O)c1ccc(C(F)(F)F)cc1S(C)(=O)=O [Compound 1-8]				90	95	100				100	100	100
COCc1c(S(C)(=O)=O)ccc(C(=O)N(C(=O)C2=CCCC2)c2nnnn2C)c1Cl [Compound 2-105]	90	90	100									
